# Entries after “also recorded” stand apart in the source; their conditions may differ.
# How the values were obtained:
# [1] = plasma pharmacokinetics of ARRY-382, Phase 1b Part A (with pembrolizumab); format: in vivo, human
# [2] = system: CSF-1; assay: pharmacodynamic analysis of circulating biomarkers: CSF-1 levels, Part A; format: in vivo, human
# [3] = system: advanced solid tumors; assay: preliminary antitumor activity by RECIST version 1.1 and irRC, Part A; format: in vivo, human; conditions: ARRY-382 300 mg cohort, with pembrolizumab
# Source text: Key eligibility criteria for Part A was adult patients with confirmed diagnosis of: bladder cancer, head and neck squamous cell cancer, ovarian cancer, triple-negative breast cancer, gastric cancer, metastatic colorectal cancer, or pancreatic ductal adenocarcinoma, refractory to standard of car, with no standard therapy available or for which the patient refused standard therapy; advanced, unresectable, or metastatic melanoma with or without prior treatment; or advanced/metastatic PD-L1-positive non-small cell lung cancer (NSCLC) meeting any of the following criteria: (1) tumors without EGFR or ALK genomic aberrations in patients who had received no prior systemic chemotherapy or had disease progression on or after platinum-containing chemotherapy, or (2) tumors with EGFR or ALK genomic aberrations in patients with disease progression on a US Food and Drug Administration-approved therapy for EGFR or ALK genomic tumor aberrations. Patients who received prior immune checkpoint inhibitor treatment were excluded from the study.
# DLTs were determined using standard definitions.
# [4] = Bendell et al. 2013, cited from earlier work
# [5] = Phase 1b dose escalation (Part A): DLTs, adverse events, RP2D of ARRY-382 with pembrolizumab
# [6] = Part A, ARRY-382 + pembrolizumab
compound,measurement,setting,value
"Cc1cccc(Cn2nc(C3CC3)c3c(NC(=O)c4cnc5cc(OCCN6CCN(C)CC6)ccn45)cccc32)n1 [ARRY-382, N-(3-cyclopropyl-1-((6-methylpyridin-2-yl)methyl)-1H-indazol-4-yl)-7-(2-(4-methylpiperazin-1-yl)ethoxy)imidazo[1,2-a]pyridine-3-carboxamide]",exposure in the 300 mg versus 400 mg dose cohorts,[1]; 300 mg vs 400 mg QD,similar
same,dose proportionality of ARRY-382 exposure,"[1]; 200, 300, 400 mg QD with pembrolizumab",generally dose-proportional
same,PK interactions between ARRY-382 and pembrolizumab,"[1]; patients, Part A",no evidence of any PK interactions
same,"average maximum increase in CSF-1 levels from baseline, 300 mg versus 400 mg cohorts",[2]; 300 mg vs 400 mg cohorts,similar
same,average maximum increase in CSF-1 levels from baseline,[2]; ARRY-382 300 mg QD with pembrolizumab,5.4 fold
same,relation of increases from baseline in CSF-1 levels to ARRY-382 exposure,[2]; Part A,correlated with increasing ARRY-382 exposure
same,patients with stable disease per irRC,[3],3 patients
same,"stable disease per RECIST version 1.1, share of patients",[3],33%
same,"stable disease per irRC, share of patients",[3],50%
same,doses with biological activity,[4]; QD,greater than or equal to 200 mg
same,maximum tolerated dose (MTD),[4]; once daily (QD),400 mg
same,dose-limiting toxicities in the 200 mg cohort,"[5]; ARRY-382 200 mg QD + pembrolizumab, six patients",No DTLs occurred; also recorded: No DLTs occurred
same,patients who discontinued because of an AE of pneumonitis,"[5]; ARRY-382 200 mg cohort, onset in cycle 4",One
same,patients with dose reductions in the 300 mg cohort,[5]; ARRY-382 300 mg cohort,3 patients
same,patients who experienced a DLT in the 400 mg cohort,[5]; ARRY-382 400 mg QD + pembrolizumab,2 of 7 and Two of seven
same,course of AST and CK elevations after interruption of ARRY-382,[5]; Part A,resolved in all patients; also recorded: reversible
same,grade 4 events of increased blood CK,[5]; Part A,one
same,patients with AST elevation who required dose reduction,[5]; Part A,2 patients
same,patients with CK elevation who required dose reduction,[5]; Part A,3 patients
same,patients with immune-related adverse events (investigator-classified),[5]; Part A,5 patients
same,most common adverse events of any grade,"[5]; Part A, 19 patients, ARRY-382 + pembrolizumab","increased laboratory values (AST, CK, ALT, alkaline phosphatase (ALP), lipase, amylase), fatigue, pyrexia, and nausea"
same,most common grade 3/4 events (>10%),[5]; [6],"increased AST, increased CK, rash, lipase increased, increased ALP, increased ALT, and anemia"
same,patients with grade 3 AST elevation,[5]; [6],5 patients
same,on-study deaths (on treatment or within 30 days of last dose),"[5]; Part A, cause disease progression in all cases",3
same,recommended phase 2 dose (RP2D),"[5]; QD continuously, in combination with pembrolizumab 2 mg/kg IV every 3 weeks",300 mg
same,"immune-related adverse events, manageability",[5]; regardless of relationship to study drug,observed and were manageable

# Reference: patent US20190211102A1, “METHODS AND COMBINATION THERAPY TO TREAT CANCER” (Array BioPharma Inc., priority 2018, published 2019)
